These results are taken from US9452986B2, “6-heteroaryloxy- or 6-aryloxy-quinoline-2-carboxamides and method of use” (AbbVie Inc., priority 2014, dated 2016).

Structures are written as SMILES.

In the first assay the target is recombinant human Nav1.7 (Homo sapiens (Human), UniProt Q15858). Briefly: FRET-based membrane potential assay, recombinant human sodium channel Nav1.7. The format is cell-based. As to conditions: HEK293 cells stably expressing recombinant human Nav1.7; veratridine + scorpion venom depolarization; read-out: FRET-Membrane Potential Nav1.7 IC50. Put shortly: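 Channel activation used veratridine at its EC80, set by a dilution curve each experiment, together with Leiurus scorpion venom, added 3 min after compound. Membrane-potential ratio signals from FLIPR Tetra in HEPES-buffered HBSS were fitted to a four-parameter Hill equation for percent inhibition and IC50.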
Chain of recombinant human Nav1.7 (Q15858 whole entry): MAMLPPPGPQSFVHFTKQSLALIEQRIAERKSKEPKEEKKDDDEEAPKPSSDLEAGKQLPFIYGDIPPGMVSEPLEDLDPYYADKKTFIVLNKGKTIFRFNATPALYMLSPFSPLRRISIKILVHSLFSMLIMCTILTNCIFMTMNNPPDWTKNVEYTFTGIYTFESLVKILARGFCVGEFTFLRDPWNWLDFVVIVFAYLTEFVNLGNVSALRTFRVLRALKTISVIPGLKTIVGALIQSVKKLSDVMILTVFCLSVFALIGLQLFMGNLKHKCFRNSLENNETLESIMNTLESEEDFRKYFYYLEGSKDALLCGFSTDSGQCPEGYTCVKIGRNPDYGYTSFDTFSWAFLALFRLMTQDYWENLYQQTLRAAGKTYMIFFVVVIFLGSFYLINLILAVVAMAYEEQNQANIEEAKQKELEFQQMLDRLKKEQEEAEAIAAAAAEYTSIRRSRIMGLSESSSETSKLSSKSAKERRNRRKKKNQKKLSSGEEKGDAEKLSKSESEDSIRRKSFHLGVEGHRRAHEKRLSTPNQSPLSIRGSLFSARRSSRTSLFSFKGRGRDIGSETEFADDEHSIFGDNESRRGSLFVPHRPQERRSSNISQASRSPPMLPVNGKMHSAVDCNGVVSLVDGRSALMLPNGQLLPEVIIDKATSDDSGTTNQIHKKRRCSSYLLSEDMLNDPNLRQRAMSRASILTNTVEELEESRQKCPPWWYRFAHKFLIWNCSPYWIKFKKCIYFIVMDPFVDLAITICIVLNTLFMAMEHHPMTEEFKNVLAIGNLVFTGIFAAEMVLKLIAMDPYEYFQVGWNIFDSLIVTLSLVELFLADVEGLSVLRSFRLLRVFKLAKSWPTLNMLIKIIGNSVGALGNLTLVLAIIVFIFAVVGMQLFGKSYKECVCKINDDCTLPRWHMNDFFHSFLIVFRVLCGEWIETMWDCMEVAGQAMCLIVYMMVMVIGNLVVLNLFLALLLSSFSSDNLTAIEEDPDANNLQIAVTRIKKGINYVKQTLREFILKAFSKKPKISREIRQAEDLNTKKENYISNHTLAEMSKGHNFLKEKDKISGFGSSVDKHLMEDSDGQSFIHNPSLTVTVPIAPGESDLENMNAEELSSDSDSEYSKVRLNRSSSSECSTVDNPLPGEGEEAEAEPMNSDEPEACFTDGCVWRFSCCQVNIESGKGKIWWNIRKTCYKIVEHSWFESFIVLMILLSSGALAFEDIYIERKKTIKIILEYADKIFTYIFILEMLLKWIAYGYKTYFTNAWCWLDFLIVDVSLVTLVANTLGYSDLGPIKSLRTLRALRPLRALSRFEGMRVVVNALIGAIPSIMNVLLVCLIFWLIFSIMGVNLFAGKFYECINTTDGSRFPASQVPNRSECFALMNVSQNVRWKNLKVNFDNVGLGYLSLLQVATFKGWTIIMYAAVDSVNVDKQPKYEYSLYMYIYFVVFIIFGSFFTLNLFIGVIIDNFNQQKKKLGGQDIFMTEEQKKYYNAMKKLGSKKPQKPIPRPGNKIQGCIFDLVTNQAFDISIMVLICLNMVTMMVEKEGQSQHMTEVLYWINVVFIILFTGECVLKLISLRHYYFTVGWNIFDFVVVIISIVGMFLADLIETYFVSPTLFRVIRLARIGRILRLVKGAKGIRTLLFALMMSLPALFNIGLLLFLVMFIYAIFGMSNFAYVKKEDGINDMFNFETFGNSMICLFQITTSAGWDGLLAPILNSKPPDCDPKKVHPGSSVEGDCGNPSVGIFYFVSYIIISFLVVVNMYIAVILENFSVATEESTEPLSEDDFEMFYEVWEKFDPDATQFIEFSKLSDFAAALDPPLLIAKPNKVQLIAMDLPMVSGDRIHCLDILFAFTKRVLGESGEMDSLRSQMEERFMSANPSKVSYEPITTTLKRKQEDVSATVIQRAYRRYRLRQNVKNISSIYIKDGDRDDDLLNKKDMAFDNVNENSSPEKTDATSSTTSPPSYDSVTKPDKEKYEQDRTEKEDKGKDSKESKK
As for `O=C(c1ccc2cc(Oc3ccc(C(F)(F)F)cn3)ccc2n1)N1CCC12CNC2` [Example 279, 1,6-diazaspiro[3.3]hept-1-yl(6-{[5-(trifluoromethyl)pyridin-2-yl]oxy}quinolin-2-yl)methanone], the IC50 is 5.68 µM.

Consider `O=C(c1ccc2cc(Oc3ccc(C(F)(F)F)cn3)ccc2n1)N1C[C@@H]2CCN[C@@H]2C1` [Example 280, (3 aS,6aS)-hexahydropyrrolo[3,4-b]pyrrol-5(1H)-yl(6-{[5-(trifluoromethyl)pyridin-2-yl]oxy}quinolin-2-yl)methanone], for which the concentration for half-maximal inhibition (IC50) turned out to be 0.605 µM.

As to `O=C(NN1CCOCC1)c1ccc2cc(Oc3ccc(C(F)(F)F)cn3)ccc2n1` [Example 281, N-(morpholin-4-yl)-6-{[5-(trifluoromethyl)pyridin-2-yl]oxy}quinoline-2-carboxamide], the IC50 was 1.28 µM.

For `O=C(c1ccc2cc(Oc3ccc(C(F)(F)F)cn3)ccc2n1)N1CC[C@@H](O)C1` [Example 282, [(3R)-3-hydroxypyrrolidin-1-yl](6-{[5-(trifluoromethyl)pyridin-2-yl]oxy}quinolin-2-yl)methanone], the concentration for half-maximal inhibition (IC50) was 8.52 µM.

Consider `O=C(c1ccc2cc(Oc3ccc(C(F)(F)F)cn3)ccc2n1)N1CC[C@H](O)C1` [Example 283, [(3S)-3-hydroxypyrrolidin-1-yl](6-{[5-(trifluoromethyl)pyridin-2-yl]oxy}quinolin-2-yl)methanone], for which the half-inhibitory concentration (IC50) was found to be 10.9 µM.

For the compound `O=C(c1ccc2cc(Oc3ccc(C(F)(F)F)cn3)ccc2n1)N1CCCC(O)CC1` (stereo not shown) [Example 284, (4-hydroxyazepan-1-yl)(6-{[5-(trifluoromethyl)pyridin-2-yl]oxy}quinolin-2-yl)methanone], the IC50 was found to be 8.59 µM.

Turning to `CC1(CN2CCN(C(=O)c3ccc4cc(Oc5ccc(C(F)(F)F)cn5)ccc4n3)CC2)COC1` [Example 286, {4-[(3-methyloxetan-3-yl)methyl]piperazin-1-yl}(6-{[5-(trifluoromethyl)pyridin-2-yl]oxy}quinolin-2-yl)methanone], the IC50 came to 11.4 µM.

Regarding `CS(=O)(=O)C1CCN(C(=O)c2ccc3cc(Oc4ccc(C(F)(F)F)cn4)ccc3n2)C1` (stereo not shown) [Example 287, [3-(methylsulfonyl)pyrrolidin-1-yl](6-{[5-(trifluoromethyl)pyridin-2-yl]oxy}quinolin-2-yl)methanone], the IC50 amounted to 2.81 µM.

Regarding `O=C(c1ccc2cc(Oc3ccc(C(F)(F)F)cn3)ccc2n1)N1CCN2C(=O)CCC2C1` (stereo not shown) [Example 288, 2-[(6-{[5-(trifluoromethyl)pyridin-2-yl]oxy}quinolin-2-yl)carbonyl]hexahydropyrrolo[1,2-a]pyrazin-6(2H)-one], the IC50 was 7.88 µM.

With `CCOC(=O)N1CCN(C(=O)c2ccc3cc(Oc4ccc(C(F)(F)F)cn4)ccc3n2)CC1` [Example 289, ethyl 4-[(6-{[5-(trifluoromethyl)pyridin-2-yl]oxy}quinolin-2-yl)carbonyl]piperazine-1-carboxylate], the concentration for half-maximal inhibition (IC50) turned out to be 3.91 µM.

For `O=C(c1ccc2cc(Oc3ccc(C(F)(F)F)cn3)ccc2n1)N1CCN(C(=O)C2CC2)CC1` [Example 290, cyclopropyl{4-[(6-{[5-(trifluoromethyl)pyridin-2-yl]oxy}quinolin-2-yl)carbonyl]piperazin-1-yl}methanone], the IC50 was determined as 9.86 µM.

Still in this assay, the particulars now being: read-out: FRET-Membrane Potential Nav1.7 IC50.
In the case of `O=C(c1ccc2cc(Oc3ccc(C(F)(F)F)cn3)ccc2n1)N1C[C@@H]2CN[C@@H]2C1` [Example 278, (1S,5S)-3,6-diazabicyclo[3.2.0]hept-3-yl(6-{[5-(trifluoromethyl)pyridin-2-yl]oxy}quinolin-2-yl)methanone], the 50% inhibitory concentration (IC50) worked out at 3.72 µM.

Consider `O=C(NC1CS(=O)(=O)CC1O)c1ccc2cc(Oc3ccc(C(F)(F)F)cn3)ccc2n1` (stereo not shown) [Example 285, N-(4-hydroxy-1,1-dioxidotetrahydrothiophen-3-yl)-6-{[5-(trifluoromethyl)pyridin-2-yl]oxy}quinoline-2-carboxamide], for which the half-maximal inhibitory concentration (IC50) came out at 0.774 µM.
